Reference: patent US6750211B2, “Diimino compounds for use as modulators of cell regulation” (Emory University, priority 1999, dated 2004)

Tested on: J774A.1 cells
Test: Suppression of the sphingosine "burst" on change to new medium
Format: cell-based, murine
Protocol: J774A.1 cells (No. TIB 67, a murine macrophage-like transformed cell line) were obtained from the American Type Culture Collection (Rockville, Md.) and grown in DMEM and 10% FBS and sodium bicarbonate (3.7 g/l) in a spinner flask at 37° C. and an atmosphere of 5% CO2. Cells were passaged every two to three days by a 1:4 dilution with fresh medium to a density of approximately 2.5×10^5 cells/ml. Cells were used between passages 3 and 24.
Unless indicated differently, suspended cells were removed from the spinner flask, collected by gentle centrifugation (in a table top centrifuge), resuspended in new medium, added to 60 mm tissue culture dishes at 5 to 7.5×10^5 cells per 2 ml of medium. Under these conditions, the cells adhere to the dish rather than grow in suspension. The cells were incubated at 37° C., 5% CO2, for three days before beginning by removing the conditioned medium and adding fresh medium to initiate the “burst”.
After incubation of the cells, the medium was removed, 0.5 ml of ice-cold methanol added, and the cells scraped from the dishes with a rubber spatula. The plates were scraped again with 0.4 ml of deionized water, followed by 0.4 ml of methanol. Cells and washes were pooled in 13×100 mm test tubes, 200 to 300 pmol of C20-sphinganine added as an internal standard, and the long-chain bases extracted- and analyzed by HPLC (as described by Merrill, A. H., Jr., et al., (1988) Anal. Biochem. 171, 373-381) with C20-sphinganine as an internal standard.

| IC50 (Mus musculus, J774.A1, titration with purified fraction III added with DMEM, concentration approximated from TNBS amine estimate, FIG. 9, read-out: apparent concentration for 50% suppression of the sphingosine burst) [mM] | SMILES | fold more concentrated than conditioned medium (volume to volume comparison of amount needed to suppress the burst) (compared with conditioned medium) | volume giving 50% suppression of the sphingosine burst (purified fraction III (amine concentration about 200 mM) added with DMEM, FIG. 9) [µL] | share of the suppression of the sphingosine burst accounted for by the ammonia concentration of conditioned medium (at most time points, calculated from FIGS. 6A and B, FIG. 7) | suppression of the sphingosine burst (in words) (sphingosine measured after adding medium to J774 cells) |
| --- | --- | --- | --- | --- | --- |
| 1 to 3 | N=C1NC(=N)C(CCCCN)NC1CCCCN (single isomer, unassigned) [fraction III, 2,6-bis-(ω-aminobutyl)-3,5-diimino-piperazine] | greater than 200 fold | 30 |  |  |
|  | N [NH4^+, reference compound] |  |  | greater than 50% | shown to suppress the sphingosine burst |
